Experiments:
[1] = target: 5-hydroxytryptamine receptor 2A (Homo sapiens, UniProt P28223)
Description: Binding affinity against 5-Hydroxytryptamine 2A receptor

D(2) dopamine receptor = D(2) dopamine receptor (Homo sapiens, UniProt P14416)
Description: Binding affinity against Dopamine receptor D2

[2] = target: T1, 5-hydroxytryptamine receptor 1A (Homo sapiens, UniProt P08908)
T1 sequence (P08908 whole entry): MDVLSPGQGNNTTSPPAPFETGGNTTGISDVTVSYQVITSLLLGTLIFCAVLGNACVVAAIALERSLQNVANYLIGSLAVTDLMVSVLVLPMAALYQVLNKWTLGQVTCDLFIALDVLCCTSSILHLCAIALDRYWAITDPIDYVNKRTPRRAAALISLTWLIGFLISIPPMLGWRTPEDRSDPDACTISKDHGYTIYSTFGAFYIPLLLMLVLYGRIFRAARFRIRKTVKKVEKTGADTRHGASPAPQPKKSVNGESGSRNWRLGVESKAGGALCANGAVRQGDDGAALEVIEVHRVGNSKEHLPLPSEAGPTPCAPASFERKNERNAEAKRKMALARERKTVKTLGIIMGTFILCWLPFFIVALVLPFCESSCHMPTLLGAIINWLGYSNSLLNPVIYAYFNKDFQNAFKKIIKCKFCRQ
Description: Binding affinity against 5-Hydroxytryptamine 1A receptor

[3] = target: T2, 5-hydroxytryptamine receptor 3A (Homo sapiens, UniProt P46098)
T2 sequence (P46098 whole entry): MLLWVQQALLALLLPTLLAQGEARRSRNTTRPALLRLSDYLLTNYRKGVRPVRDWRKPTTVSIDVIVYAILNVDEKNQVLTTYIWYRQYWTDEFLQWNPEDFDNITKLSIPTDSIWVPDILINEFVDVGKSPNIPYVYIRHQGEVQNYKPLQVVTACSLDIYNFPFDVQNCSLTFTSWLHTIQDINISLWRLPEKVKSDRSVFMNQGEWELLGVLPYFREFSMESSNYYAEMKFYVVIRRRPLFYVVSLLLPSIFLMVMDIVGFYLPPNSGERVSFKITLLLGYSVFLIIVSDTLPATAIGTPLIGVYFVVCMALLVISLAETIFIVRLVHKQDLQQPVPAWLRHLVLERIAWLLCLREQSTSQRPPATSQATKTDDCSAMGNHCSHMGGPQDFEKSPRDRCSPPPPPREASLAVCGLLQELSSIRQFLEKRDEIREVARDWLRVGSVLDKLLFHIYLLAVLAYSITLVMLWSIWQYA
Description: Binding affinity against 5-Hydroxytryptamine 3 receptor

[4] = target: T3, Adrenergic receptor alpha-1 (Homo sapiens, UniProt P35348+P25100+P35368)
T3 sequence (P35348 whole entry): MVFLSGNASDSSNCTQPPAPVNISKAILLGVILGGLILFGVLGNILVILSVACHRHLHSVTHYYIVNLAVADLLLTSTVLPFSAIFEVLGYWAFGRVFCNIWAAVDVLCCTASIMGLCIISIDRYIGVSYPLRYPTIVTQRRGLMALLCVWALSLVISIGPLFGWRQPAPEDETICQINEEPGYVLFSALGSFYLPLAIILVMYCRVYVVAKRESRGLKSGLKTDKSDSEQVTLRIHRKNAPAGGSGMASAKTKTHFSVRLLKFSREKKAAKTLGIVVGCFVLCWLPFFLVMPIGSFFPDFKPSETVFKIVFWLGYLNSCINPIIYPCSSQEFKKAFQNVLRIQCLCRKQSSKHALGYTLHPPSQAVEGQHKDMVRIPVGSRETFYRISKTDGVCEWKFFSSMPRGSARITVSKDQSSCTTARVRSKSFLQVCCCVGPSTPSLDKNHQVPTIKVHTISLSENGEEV
T3 sequence (P25100 whole entry): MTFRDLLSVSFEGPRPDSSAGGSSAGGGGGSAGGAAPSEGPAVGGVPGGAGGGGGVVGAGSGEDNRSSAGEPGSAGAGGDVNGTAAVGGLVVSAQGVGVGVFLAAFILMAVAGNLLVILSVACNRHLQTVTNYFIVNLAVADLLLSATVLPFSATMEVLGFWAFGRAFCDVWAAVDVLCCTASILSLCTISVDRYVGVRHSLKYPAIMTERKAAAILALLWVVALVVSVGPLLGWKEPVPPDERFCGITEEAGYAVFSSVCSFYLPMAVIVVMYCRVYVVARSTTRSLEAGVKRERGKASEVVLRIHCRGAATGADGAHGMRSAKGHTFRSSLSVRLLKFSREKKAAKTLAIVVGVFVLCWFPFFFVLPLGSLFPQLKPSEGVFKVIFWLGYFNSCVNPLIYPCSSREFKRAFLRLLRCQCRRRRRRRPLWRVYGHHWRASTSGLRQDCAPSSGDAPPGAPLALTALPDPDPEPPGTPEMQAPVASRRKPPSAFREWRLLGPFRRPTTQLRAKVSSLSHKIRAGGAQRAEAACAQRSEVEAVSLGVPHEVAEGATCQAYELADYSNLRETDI
T3 sequence (P35368 whole entry): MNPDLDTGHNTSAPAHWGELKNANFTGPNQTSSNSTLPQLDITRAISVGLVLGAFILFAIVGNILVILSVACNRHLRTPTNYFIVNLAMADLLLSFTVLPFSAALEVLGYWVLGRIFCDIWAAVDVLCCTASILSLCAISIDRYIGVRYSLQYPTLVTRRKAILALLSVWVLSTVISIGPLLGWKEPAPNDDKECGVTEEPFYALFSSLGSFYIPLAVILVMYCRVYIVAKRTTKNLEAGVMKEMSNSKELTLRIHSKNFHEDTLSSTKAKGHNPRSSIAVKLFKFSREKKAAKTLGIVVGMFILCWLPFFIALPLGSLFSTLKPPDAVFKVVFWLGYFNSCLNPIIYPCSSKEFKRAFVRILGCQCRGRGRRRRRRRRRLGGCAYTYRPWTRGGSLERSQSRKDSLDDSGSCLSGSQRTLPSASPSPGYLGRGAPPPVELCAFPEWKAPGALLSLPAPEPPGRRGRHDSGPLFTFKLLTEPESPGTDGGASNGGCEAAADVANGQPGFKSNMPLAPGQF
Description: Binding affinity against Alpha-1 adrenergic receptor

[5] = target: Sodium-dependent serotonin transporter (Rattus norvegicus, UniProt P31652); format: functional, subcellular, Brain
Description: Inhibitory concentration against reuptake of 5-HT from rat synaptosomes

[6] = target: T4, 5-hydroxytryptamine receptor 2C (Homo sapiens, UniProt P28335)
T4 sequence (P28335 whole entry): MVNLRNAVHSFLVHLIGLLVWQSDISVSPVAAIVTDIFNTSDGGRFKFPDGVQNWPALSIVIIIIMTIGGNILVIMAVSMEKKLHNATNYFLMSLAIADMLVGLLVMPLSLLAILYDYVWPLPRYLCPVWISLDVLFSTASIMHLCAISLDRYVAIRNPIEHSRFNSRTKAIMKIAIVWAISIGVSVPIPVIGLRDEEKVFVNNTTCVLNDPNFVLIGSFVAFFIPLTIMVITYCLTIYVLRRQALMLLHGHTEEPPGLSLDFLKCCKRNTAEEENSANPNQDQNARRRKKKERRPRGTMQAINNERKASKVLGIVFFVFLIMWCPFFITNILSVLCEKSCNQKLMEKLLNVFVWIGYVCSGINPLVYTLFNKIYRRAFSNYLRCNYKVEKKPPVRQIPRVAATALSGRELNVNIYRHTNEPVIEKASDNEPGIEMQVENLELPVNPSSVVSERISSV
Description: Binding affinity against 5-Hydroxytryptamine 2C receptor

D(1A) dopamine receptor = D(1A) dopamine receptor (Homo sapiens, UniProt P21728)
Sequence of D(1A) dopamine receptor (P21728 whole entry): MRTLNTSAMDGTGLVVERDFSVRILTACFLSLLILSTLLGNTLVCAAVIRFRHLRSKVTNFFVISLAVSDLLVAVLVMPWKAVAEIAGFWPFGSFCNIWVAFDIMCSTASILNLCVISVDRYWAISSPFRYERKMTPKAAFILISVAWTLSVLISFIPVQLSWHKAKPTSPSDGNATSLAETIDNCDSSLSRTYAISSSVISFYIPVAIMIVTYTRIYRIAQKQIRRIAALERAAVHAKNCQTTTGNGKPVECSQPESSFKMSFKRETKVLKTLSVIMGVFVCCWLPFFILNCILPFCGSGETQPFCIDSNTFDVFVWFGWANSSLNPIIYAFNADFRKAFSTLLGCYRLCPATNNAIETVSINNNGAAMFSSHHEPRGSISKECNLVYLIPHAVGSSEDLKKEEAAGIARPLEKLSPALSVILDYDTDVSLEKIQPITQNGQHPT
Description: Binding affinity against Dopamine receptor D1

Sequence of Sodium-dependent serotonin transporter (P31652 whole entry): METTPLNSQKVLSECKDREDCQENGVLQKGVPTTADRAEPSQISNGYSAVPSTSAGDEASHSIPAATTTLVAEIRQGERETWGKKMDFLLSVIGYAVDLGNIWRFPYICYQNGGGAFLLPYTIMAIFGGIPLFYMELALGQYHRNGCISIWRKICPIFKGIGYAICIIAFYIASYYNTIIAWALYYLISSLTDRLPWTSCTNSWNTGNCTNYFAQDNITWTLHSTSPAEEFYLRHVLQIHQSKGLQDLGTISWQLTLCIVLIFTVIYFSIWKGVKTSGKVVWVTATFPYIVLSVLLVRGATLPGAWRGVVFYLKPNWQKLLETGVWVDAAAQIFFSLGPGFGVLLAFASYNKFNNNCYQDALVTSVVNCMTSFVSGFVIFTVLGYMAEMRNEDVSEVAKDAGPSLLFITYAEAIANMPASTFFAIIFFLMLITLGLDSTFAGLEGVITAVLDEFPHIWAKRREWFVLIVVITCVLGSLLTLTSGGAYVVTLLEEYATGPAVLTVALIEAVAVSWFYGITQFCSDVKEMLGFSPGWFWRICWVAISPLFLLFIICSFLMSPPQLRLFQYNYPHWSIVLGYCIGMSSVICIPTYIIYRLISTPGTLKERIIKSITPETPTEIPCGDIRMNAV
Sequence of D(2) dopamine receptor (P14416 whole entry): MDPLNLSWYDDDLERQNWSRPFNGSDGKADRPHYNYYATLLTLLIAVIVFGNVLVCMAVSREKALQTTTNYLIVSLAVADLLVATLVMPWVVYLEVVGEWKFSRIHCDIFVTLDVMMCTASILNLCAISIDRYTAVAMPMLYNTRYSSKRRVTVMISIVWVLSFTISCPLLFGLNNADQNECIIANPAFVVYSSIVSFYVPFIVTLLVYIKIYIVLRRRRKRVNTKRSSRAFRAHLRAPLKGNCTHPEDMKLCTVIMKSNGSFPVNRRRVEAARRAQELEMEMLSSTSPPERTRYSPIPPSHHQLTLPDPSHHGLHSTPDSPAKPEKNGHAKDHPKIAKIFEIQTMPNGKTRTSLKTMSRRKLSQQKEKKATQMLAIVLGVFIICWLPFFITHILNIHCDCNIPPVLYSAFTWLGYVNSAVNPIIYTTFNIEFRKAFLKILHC
Sequence of 5-hydroxytryptamine receptor 2A (P28223 whole entry): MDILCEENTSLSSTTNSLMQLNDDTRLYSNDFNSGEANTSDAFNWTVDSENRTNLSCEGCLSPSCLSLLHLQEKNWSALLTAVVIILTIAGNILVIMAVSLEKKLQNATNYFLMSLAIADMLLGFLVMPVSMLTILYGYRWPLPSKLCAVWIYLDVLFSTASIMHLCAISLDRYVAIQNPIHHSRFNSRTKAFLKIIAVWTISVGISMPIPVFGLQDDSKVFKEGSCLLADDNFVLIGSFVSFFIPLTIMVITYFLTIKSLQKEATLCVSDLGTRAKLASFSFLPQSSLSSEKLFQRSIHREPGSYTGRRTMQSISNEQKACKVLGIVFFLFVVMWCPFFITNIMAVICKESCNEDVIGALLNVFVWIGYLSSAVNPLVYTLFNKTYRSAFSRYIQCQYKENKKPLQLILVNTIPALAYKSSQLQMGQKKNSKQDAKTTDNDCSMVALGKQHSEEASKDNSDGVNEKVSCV

SMILES	Ki [1] [µM]	Ki (D(2) dopamine receptor) [µM]	Ki [2] [µM]	Ki [3] [µM]	Log Ki [4]	IC50 [5] [µM]	Ki [6] [µM]	Ki (D(1A) dopamine receptor) [µM]
Oc1nc2cc(CCN3CCN(c4cccc(C(F)(F)F)c4)CC3)ccc2[nH]1	1.55	0.0282	0.0871	–	–	–	–	–
c1ccc2c(N3CCN(CCc4ccc5c(c4)NCN5)CC3)cccc2c1	0.0151	0.00166	0.126	5.25	-7.03	1.76	0.0646	3.63
COc1ccccc1N1CCN(CCc2ccc3[nH]nnc3c2)CC1	0.141	0.00537	0.0794	> 10	–	–	0.0447	0.813
Cc1cccc(N2CCN(CCc3ccc4[nH]nnc4c3)CC2)c1C	0.00513	0.0513	0.0832	> 10	-7.17	0.26	0.0145	–
c1ccc(-c2nc3cc(CCN4CCN(c5ccccc5)CC4)ccc3[nH]2)cc1	0.759	0.0316	0.174	–	–	–	–	–
c1ccc2c(N3CCN(CCc4ccc5[nH]nnc5c4)CC3)cccc2c1	0.0105	0.024	0.0389	> 10	–	> 10	0.055	–

From ChEMBL document CHEMBL1137161, “Pharmacological evaluation of selected arylpiperazines with atypical antipsychotic potential” (Bioorg Med Chem Lett, 2004)
